From doi:10.1101/2025.07.02.662867v1 (bioRxiv, 2025)

Legend:
[1] = typical dose of 0.5 to 1 mg; cited from earlier work
[2] = 24-hour IV pharmacokinetic study in T2D rat model; design: species or system STZ/NA diabetic); conditions: male, Sprague Dawley, in vivo
[3] = tested on: type 2-like diabetic male rats; experiment: Blood glucose and body weight over 6 weeks in diabetic rats; format: in vivo, rat (male Sprague Dawley, STZ/NA diabetic); conditions: hydrogel vs daily bolus

| Structure (SMILES) | half-life in humans [1] [h] | half-life [2] [h] | body weight outcome [3] |
| --- | --- | --- | --- |
| CC[C@H](C)[C@H](NC(=O)[C@H](Cc1ccccc1)NC(=O)[C@H](CCC(=O)O)NC(=O)[C@H](CCCCNC(=O)COCCOCCNC(=O)COCCOCCNC(=O)CC[C@H](NC(=O)CCCCCCCCCCCCCCCCC(=O)O)C(=O)O)NC(=O)[C@H](C)NC(=O)[C@H](C)NC(=O)[C@H](CCC(N)=O)NC(=O)CNC(=O)[C@H](CCC(=O)O)NC(=O)[C@H](CC(C)C)NC(=O)[C@H](Cc1ccc(O)cc1)NC(=O)[C@H](CO)NC(=O)[C@H](CO)NC(=O)[C@@H](NC(=O)[C@H](CC(=O)O)NC(=O)[C@H](CO)NC(=O)[C@@H](NC(=O)[C@H](Cc1ccccc1)NC(=O)[C@@H](NC(=O)CNC(=O)[C@H](CCC(=O)O)NC(=O)C(C)(C)NC(=O)[C@@H](N)Cc1cnc[nH]1)[C@@H](C)O)[C@@H](C)O)C(C)C)C(=O)N[C@@H](C)C(=O)N[C@@H](Cc1c[nH]c2ccccc12)C(=O)N[C@@H](CC(C)C)C(=O)N[C@H](C(=O)N[C@@H](CCCNC(=N)N)C(=O)NCC(=O)N[C@@H](CCCNC(=N)N)C(=O)NCC(=O)O)C(C)C [Sema, semaglutide] | 170 |  |  |
| CC[C@H](C)[C@H](NC(=O)[C@H](CC(C)C)NC(=O)[C@H](Cc1c[nH]c2ccccc12)NC(=O)[C@H](CCC(N)=O)NC(=O)[C@@H](NC(=O)[C@H](Cc1ccccc1)NC(=O)[C@H](C)NC(=O)[C@H](CCCCNC(=O)COCCOCCNC(=O)COCCOCCNC(=O)CC[C@H](NC(=O)CCCCCCCCCCCCCCCCCCC(=O)O)C(=O)O)NC(=O)[C@H](CCC(N)=O)NC(=O)[C@H](C)NC(=O)[C@@H](NC(=O)[C@H](CCCCN)NC(=O)[C@H](CC(=O)O)NC(=O)[C@H](CC(C)C)NC(=O)C(C)(C)NC(=O)[C@@H](NC(=O)[C@H](CO)NC(=O)[C@H](Cc1ccc(O)cc1)NC(=O)[C@H](CC(=O)O)NC(=O)[C@H](CO)NC(=O)[C@@H](NC(=O)[C@H](Cc1ccccc1)NC(=O)[C@@H](NC(=O)CNC(=O)[C@H](CCC(=O)O)NC(=O)C(C)(C)NC(=O)[C@@H](N)Cc1ccc(O)cc1)[C@@H](C)O)[C@@H](C)O)[C@@H](C)CC)[C@@H](C)CC)C(C)C)C(=O)N[C@@H](C)C(=O)NCC(=O)NCC(=O)N1CCC[C@H]1C(=O)N[C@@H](CO)C(=O)N[C@@H](CO)C(=O)NCC(=O)N[C@@H](C)C(=O)N1CCC[C@H]1C(=O)N1CCC[C@H]1C(=O)N1CCC[C@H]1C(=O)N[C@@H](CO)C(N)=O [TZP, tirzepatide] |  | 3.87 ± 0.63 | noticeable weight loss in some animals |
